Measurements: PMC3479139, “Diverse Small Molecule Inhibitors of Human Apurinic/Apyrimidinic Endonuclease APE1 Identified from a Screen of a Large Public Collection” (PLoS ONE, 2012)

What was measured:
[1] = target: T1, APE1 (Homo sapiens, UniProt P27695); assay: Fluorogenic kinetic qHTS APE1 incision assay (primary screen and retest of cherrypicked samples); type: biochemical;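 also: purified APE1 cleaving a fluorophore/dark-quencher labelled 17-mer duplex DNA bearing a tetrahydrofuran AP site, fluorescence rise followed kinetically over the first 2 min, inhibition normalized to controls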
T1 construct: made in house
Description: All screening operations were performed on a fully integrated robotic system (Kalypsys, San Diego, CA) [28] with library plates screened proceeding from the lowest to the highest concentration to minimize compound carryover [26]. Vehicle-only plates, with DMSO being pin-transferred to the entire column 5–48 compound area, were included regularly throughout the screen in order to record any systematic shifts in assay signal. During the screen, reagent bottles were kept at 4°C and all liquid lines were covered with aluminum foil to minimize degradation.
Screening data were corrected and normalized, and concentration–effect relationships was derived using in-house developed algorithms [25].
To screen for inhibitors of APE1 incision activity, we employed a purified-enzyme biochemical assay with a model substrate featuring a red-shifted fluorescent reporter in combination with a dark non-emitting quencher. These moieties were incorporated as end labels onto a 17-mer double-stranded DNA fragment containing a centrally-located tetrahydrofuran AP site sugar mimetic, which serves as the APE1 cleavage site. Upon APE1-catalyzed strand scission immediately 5′ to the AP site analog, the shortened oligodeoxynucleotide carrying the fluorescent reporter spontaneously dissociates from the rest of the substrate, leading to an increase in fluorescence due to its spatial separation from the dark quencher (Figure 1A).
Using a high-speed whole-plate fluorescence imager, the assay data for the entire screen was conducted in kinetic mode, with the APE1 incision reaction being monitored over the initial linear time frame of 2 min (Figure 1B). Thus, any inhibition associated with each sample was computed from the alteration in fluorescence intensity over the time-course measurement period, after normalization against the appropriate controls (Figure 1B, inset).

[2] = target: T1, APE1; assay: Gel-based radiotracer (32P) APE1 incision assay; type: biochemical; parameters: concentration or dose not given beside the values; details: percent incision shown; entries 1-112;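 also: APE1 incision reactions ran 5 min at 37 °C, with cleaved product and intact substrate resolved electrophoretically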
[3] = target: T1, APE1; assay: Fluorescence polarization (FP) displacement assay of APE1 binding to AP-DNA probe; details: read-out: FP IC50;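 also: TAMRA 5′-labeled duplex DNA with THF abasic site (5 nM) and APE1 (20 nM), Mg2+-free buffer, 15 min at room temperature, inhibition seen as lowered polarization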
[4] = target: double-stranded 17-mer DNA fragment; assay: ThO (Thiazole Orange) DNA displacement assay; type: binding; details: for IC50: read-out: ThO-DNA binding IC50;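 as to all read-outs here: miniaturized displacement of the intercalating dye from unlabeled duplex DNA, used to flag nonspecific DNA binders, chiefly intercalators, groove binders may be missed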
[5] = target: T2, E. coli Endo IV (Escherichia coli, UniProt P0A6C1); assay: E. coli Endo IV profiling counterscreen; type: biochemical; details: for IC50: read-out: EndoIV IC50;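 as to all read-outs here: selectivity counterscreen of candidate APE1 inhibitors against the bacterial endonuclease Endo IV, run in the same assay format as the primary APE1 high-throughput screen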
T2 construct: made in house
Excerpt: In order to screen out nonselective compounds, such as non-specific DNA binders and inhibitors of related enzymes, we used a miniaturized ThO DNA displacement assay and a counterscreen against the bacterial endonuclease E. coli Endo IV, respectively, following the previously published protocols [21].
To probe the selectivity of the candidate APE1 inhibitors, we tested them against E. coli EndoIV [36], employing the same assay as used in the HTS.

[6] = initial quantitative high-throughput screen, read-out: APE1 qHTS IC50
[7] = retest of cherrypicked sample, read-out: APE1 Retest IC50

T1 sequence (P27695 whole entry): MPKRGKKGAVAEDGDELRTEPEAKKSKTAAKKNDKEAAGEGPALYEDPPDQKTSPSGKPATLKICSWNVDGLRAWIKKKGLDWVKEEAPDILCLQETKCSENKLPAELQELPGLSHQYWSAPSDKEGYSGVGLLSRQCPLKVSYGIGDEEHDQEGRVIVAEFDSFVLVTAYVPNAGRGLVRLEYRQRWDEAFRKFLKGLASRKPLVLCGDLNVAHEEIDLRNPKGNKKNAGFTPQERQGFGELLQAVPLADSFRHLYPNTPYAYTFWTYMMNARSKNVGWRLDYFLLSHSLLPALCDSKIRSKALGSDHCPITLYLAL

| Compound | IC50 [1, 6] [µM] | IC50 [1, 7] [µM] | Radiotracer Assay (%Activity) [2] [%] | IC50 [3] [µM] | IC50 [4] [µM] | Concentration response against EndoIV [5] | IC50 [5] [µM] | ThO assay signal behaviour (autofluorescence interference) [4] |
| --- | --- | --- | --- | --- | --- | --- | --- | --- |
| CCN(CC)c1ccc(C(=C2C=CC(=[N+](CC)Cc3cccc(S(=O)(=O)[O-])c3)C=C2)c2ccc(N(CC)Cc3cccc(S(=O)(=O)O)c3)cc2)cc1 [NCGC00166058] | 31.6 | 25.1 | 13.4 | 31.6 | 35.5 | complete concentration response curves | 28.2 |  |
| O=c1oc2c(O)c(O)cc3c(=O)oc4c(O)c(O)cc1c4c23 [NCGC00094975] | 0.01 | 0.01 | 2.4 | 31.6 | 0.1 |  | > 57 |  |
| O=C(c1cc(C(=O)c2ccco2)cc(C(=O)c2ccco2)c1)c1ccco1 [MLS000699310] | 31.6 | 5 | 6 | > 57 | > 57 |  | > 57 |  |
| CC(=O)NC1=NC(=O)/C(=C/c2cc(C)n(-c3cccc(C(=O)O)c3)c2C)S1 [MLS000673948] | 3.5 | 4.4 | 30 | > 57 | > 57 |  | > 57 |  |
| Nc1ccc(Nc2ccccc2)c(S(=O)(=O)O)c1 [MLS000737782] | 14.1 | 15.8 | 9 | > 57 | > 57 |  | > 57 |  |
| CCN(CC)C(=O)CC(c1cc(OC)c(OC)c(OC)c1)c1c(OC)cc(OC)c2c(-c3ccccc3)cc(=O)oc12 (stereo not shown) [MLS000879482] | 22.4 | 5 | 37 | 12.6 | > 57 |  | > 57 |  |
| CC(=O)Oc1cc2cccc(OC(C)=O)c(=O)c2c(OC(C)=O)c1OC(C)=O [MLS001049122] | 0.4 | 6.3 | 37 | > 57 | > 57 |  | > 57 |  |
| CC(=O)N[C@H]1C(O[C@@H]2O[C@H](C[C@@H](O)[C@H]3O[C@@H](N4CCC(=O)NC4=O)[C@H](O)[C@@H]3O)[C@H](O)[C@H](O)[C@H]2NC(=O)/C=C/CCCCCCCCCCC(C)C)OC(CO)[C@@H](O)[C@@H]1O (stereo partly shown) [NCGC00161652] | 7.9 | 2.5 | 26.5 | 31.6 | > 57 |  | > 57 |  |
| CCn1c(SCC(=O)O)nc2sc3c(c2c1=O)CCC3 [MLS000069140] | 22.4 | 12.6 | 22.3 | > 57 | > 57 |  | > 57 |  |
| Cc1cccc(C)c1NC(=O)CSc1nnc(-c2ccco2)c(-c2ccco2)n1 [MLS000556463] | 15.6 | 3.6 | 43 | > 57 | > 57 |  | > 57 |  |
| Cc1ccc2c(=O)c3ccccc3n(CCCN)c2c1C [NCGC00161415] | 4.5 | 10 | 4.6 | 1.3 | 14.1 | complete concentration response curves |  |  |
| Cc1cc(/C=C2\C(=O)NC(=O)N(Cc3ccccc3Cl)C2=O)c(C)n1-c1ccc(C(=O)O)cc1 [MLS000627094] | 11.2 | 12.6 | 2 | 15.8 | > 57 |  | > 57 |  |
| O=C(NC1CC1)c1cc(-c2ccco2)nc2ccccc12 [MLS001005620] | 11.2 | 4.4 | 17 | > 57 | > 57 |  | > 57 |  |
| O=C(CSc1nc(-c2ccc(F)cc2)nc2c1Cc1ccccc1O2)Nc1ccc(C(=O)O)cc1 [MLS000673045] | 12.6 | 4.5 | 36 | > 57 | 3.2 |  | 14.1 |  |
| CN(C)C(=O)Nc1ccc(Cl)c(Cl)c1 [NCGC00094525] | 20 | 44.7 | 36.6 | > 57 | > 57 |  | > 57 |  |
| Cc1ccc(NC(=O)CN2C(=O)S/C(=C/c3ccc(-c4cc(C(=O)O)ccc4C)o3)C2=O)cc1C [MLS000530771] | 19.9 | 7.1 | 21 | 10 | > 57 |  | > 57 |  |
| Cc1c2c(c(O)c3c(O)cccc13)C(=O)O[C@H]2C1C(N(C)C)C(O)=C(C(N)=O)C(=O)[C@H]1O (stereo partly shown) [NCGC00163605] | 2 | 1.6 | 2.7 | 2.2 |  |  | > 57 | strong dose-dependent fluorescence signal increase |
| O=C(CCCN1C(=O)/C(=C/c2ccco2)SC1=S)Nc1ccccc1C(=O)O [MLS000778775] | 19.9 | 12.6 | 3 | 5 | > 57 |  | > 57 |  |
| Cc1ccc(S(=O)(=O)Nc2csc(C)c2C(=O)O)cc1 [MLS000850015] | 11.2 | 15.8 | 49 | > 57 | > 57 |  | > 57 |  |

| Compound | IC50 [1, 6] [µM] | IC50 [1, 7] [µM] | Radiotracer Assay (%Activity) [2] [%] | IC50 [3] [µM] | IC50 [4] [µM] | Concentration response against EndoIV [5] | IC50 [5] [µM] | ThO assay signal behaviour (autofluorescence interference) [4] |
| --- | --- | --- | --- | --- | --- | --- | --- | --- |
| O=C(N/N=C/c1cccn1-c1cccc(C(=O)O)c1)Nc1ccccc1 [MLS000588622] | 5 | 3.5 | 32 | > 57 | > 57 |  | > 57 |  |
| Cc1cc(C)c2nc(-c3ccco3)cc(C(=O)O)c2c1 [MLS000703171] | 7.1 | 12.6 | 23 | > 57 | > 57 |  | > 57 |  |
| O=C(/C=C/c1ccco1)NCc1ccco1 [MLS000768482] | 22.4 | 4.5 | 21 | > 57 | > 57 |  | > 57 |  |
| CC(=O)OCC1=C(C(=O)[O-])N2C(=O)C(NC(=O)CCCC(N)C(=O)O)C2SC1.[Na+] (stereo not shown) [NCGC00094863] | 22.4 |  | 41 | > 57 | > 57 |  | > 57 |  |
| COc1ccc(N2Cc3cccc(C(=O)O)c3C2=O)cc1 [MLS000120697] | 12.6 | 3.9 | 37 | 7.9 | > 57 |  | > 57 |  |
| Cc1ccc(NC(=O)CN2C(=O)S/C(=C\c3cccn3-c3cccc(C(=O)O)c3)C2=O)c(C)c1 [MLS000540800] | 8.9 | 12.6 | 0 | 15.8 | > 57 |  | > 57 |  |
| O=C(Nc1ccc2nc(-c3ccco3)c(-c3ccco3)nc2c1)N1CCCCCC1 [MLS000050353] | 3.5 | 4 | 41 | 12.6 | > 57 |  | 15.8 |  |
| NC(Cc1ccc(O)c(O)c1)C(=O)O (stereo not shown) [NCGC00095195] | 0.3 | 0.1 | 28.3 | > 57 | > 57 |  | > 57 |  |
| COc1cc(/C=N/Nc2ccc(C(=O)O)cc2)ccc1O [MLS000685676] | 14.1 | 14.1 | 50 | > 57 | > 57 |  | > 57 |  |
| Cc1cc(/C=C2\C(=O)NC(=O)N(Cc3ccco3)C2=O)c(C)n1-c1ccc(C(=O)O)cc1 [MLS000807042] | 1.1 | 14.1 | 33 | > 57 | > 57 |  | > 57 |  |
| O=C(NN1C(=O)/C(=C/C=C/c2ccco2)SC1=S)c1ccncc1 [MLS000762704] | 4.5 | 4.5 | 36 | > 57 | > 57 |  | > 57 |  |
| CSC1=N/C(=C\c2ccc(Br)o2)C(=O)S1 [MLS000534059] |  | 8.9 | 36 | > 57 | > 57 |  | > 57 |  |
| CCC(C)C(=O)OCC1(c2ccc(C)cc2OC(=O)C(C)C)CO1 (stereo not shown) [MLS000876981] | 8.9 | 11.2 | 36 | > 57 | > 57 |  | > 57 |  |
| Cc1cc(C=O)c(C)n1-c1ccc(Cl)c(C(=O)O)c1 [MLS000676588] | 5.6 | 8.9 | 31 | > 57 | > 57 |  | > 57 |  |
| COc1ccc(N2CCN(C(=O)Cc3ccc(S(=O)(=O)N4CCOCC4)s3)CC2)cc1 [MLS000760918] | 14.1 |  | 45 | > 57 | > 57 |  | > 57 |  |
| O=C1CC(=O)N(Cc2ccco2)C(=O)N1 [MLS000062734] | 10 | 5.6 | 14 | > 57 | > 57 |  | > 57 |  |
| Oc1cc(O)c2c(c1)OC(c1ccc(O)c(O)c1)C(O)C2 (stereo not shown) [NCGC00095270] | 3.2 | 2.8 | 35.9 | > 57 | > 57 |  | > 57 |  |
| O=C(O)c1ccc(N2C(=O)c3cccc4c(C(=O)O)ccc(c34)C2=O)cc1 [MLS000713642] | 12.6 | 7.9 | 28 | 15.8 | > 57 |  | > 57 |  |
